Assay results taken from patent publication US6274587A, “Tricyclic dihydropyrimidine potassium channel openers” (Abbott Laboratories, priority 1999, dated 2001).

Tests used:
potassium channels = assay: Membrane Hyperpolarization (MHP) in Guinea-Pig Bladder (GPB) Cells, FLIPR with DiBAC(4)3; assay type: cell-based; conditions: for EC50: concentration eliciting 50% of the test sample's maximal response; for Maximal Response (% P1075): maximal steady-state hyperpolarization relative to 10 μM P1075 (100%)
Experimental: Compounds were evaluated for potassium channel opening activity using primary cultured quinea-pig urinary bladder (GPB) cells.
For the preparation of urinary bladder smooth muscle cells, urinary bladders were removed from male quinea-pigs (Hartley, Charles River, Wilmington, Mass.) weighing 300-400 g and placed in ice-cold Ca^2+ -free Krebs solution (Composition, mM: KCl, 2.7; KH2 PO4, 1.5; NaCl, 75; Na2 HPO4, 9.6; Na2 HPO4.7H2 O, 8; MgSO4, 2; glucose, 5; HEPES, 10; pH 7.4). Cells were isolated by enzymatic dissociation as previously described with minor modifications in (Klockner, U. and Isenberg, G., Pflugers Arch. 1985, 405, 329-339), hereby incorporated by reference. The bladder was cut into small sections and incubated in 5 mL of the Kreb's solution containing 1 mg/mL collagenase (Sigma, St. Louis, Mo.) and 0.2 mg/mL pronase (Calbiochem, La Jolla, Calif.) with continuous stirring in a cell incubator for 30 minutes. The mixture was then centrifuged at 1300×g for 5 minutes, and the pellet resuspended in Dulbecco's PBS (GIBCO, Gaithersburg, Md.) and recentrifuged to remove residual enzyme. The cell pellet was resuspended in 5 mL growth media (composition: Dulbecco's modified Eagle's medium supplemented with 10% fetal bovine serum, 100 units/niL penicillin, 100 units/mL streptomycin and […] amphotericin B) and further dissociated by pipetting the suspension through a flame-polished Pasteur pipette and passing it through a polypropylene mesh membrane (Spectrum, Houston, Tex.). The cell density was adjusted to 100,000 cells/mL by resuspension in growth media. Cells were plated in clear-bottomed black 96-well plates (Packard) for membrane potential studies at a density of 20,000 cells/well and maintained in a cell incubator with 90% air: 10% CO2 until confluent. Cells were confirmed to be of smooth muscle type by cytoskeletal staining using a monoclonal mouse anti human-α-smooth muscle actin (Biomeda, Foster City, Calif.).
Functional activity at potassium channels was measured by evaluating changes in membrane potential using the bis-oxonol dye DiBAC(4)3 (Molecular Probes) in a 96-well cell-based kinetic assay system, Fluorescent Imaging Plate Reader (FLIPR) (K. S. Schroeder et al., J. Biomed. Screen., v. 1 pp. 75-81 (1996)), hereby incorporated by reference. DiBAC(4)3 is an anionic potentiometric probe which partitions between cells and extracellular solution in a membrane potential-dependent manner. With increasing membrane potential (for example, K^+ depolarization), the probe further partitions into the cell; this is measured as an increase in fluorescence due to dye interaction with intracellular lipids and proteins. Conversely, decreasing membrane potential (hyperpolarizationby potassium channel openers) evokes a decrease in fluorescence.
Confluent quinea-pig urinary bladder cells cultured in black clear-bottomed96-well plates were rinsed twice with […] assay buffer (composition, mM: HEPES, 20; NaCl, 120; KCl, 2; CaCl2, 2; MgCl2, 1; glucose, 5; pH 7.4 at 25 ° C.) containing 5 μM DiBAC(4)3 and incubated with […] of the buffer in a cell incubator for 30 minutes at 37 ° C. to ensure dye distribution across the membrane. After recording the baseline fluorescence for 5 minutes, the reference or test compounds, prepared at 10 times the concentration in the assay buffer, were added directly to the wells. Changes in fluorescence were monitored for an additional 25 minutes. Hyperpolarization responses were corrected for any background noise and were normalized to the response observed with 10 μM of the reference compound P1075, N"-cyano-N-(tert-pentyl)-N'-(3-pyridinyl)quanidine, which was assigned as 100%. P1075 is a potent opener of smooth muscle KATP channels (Quast et al., Mol. Pharmacol., v. 43 pp. 474-481 (1993)) and was prepared using the procedures described in (Manley, J. Med. Chem. (1992) 35, 2327-2340), hereby incorporated by reference. […]

potassium channel = assay: Functional Potassium Channel Opening Activity in Isolated Bladder Strips (electrically stimulated twitch); conditions: Landrace pig bladder strips; for Index: ED50 of P1075 divided by ED50 of test agonist, averaged over tissues; for Efficacy (% P1075): maximal efficacy relative to P1075, field stimulation 0.05 Hz; for pD2: negative logarithm of ED50
Experimental: Compounds of the present invention were evaluated for functional potassium channel opening activity using tissue strips obtained from Landrace pig bladders.
Landrace pig bladders were obtained from female Landrace pigs of 9-30 kg. Landrace pigs wer eutanized with an intraperitoneal injection of pentobarbital solution, Somlethal®, J. A. Webster Inc., Sterling Mass. The entire bladder was removed and immediately placed into Krebs Ringer bicarbonate solution (composition, mM: NaCl, 120; NaHCO3, 20; dextrose, 11; KCl, 4.7; CaCl2, 2.5; MgSO4, 1.5; KH2 PO4, 1.2; K2 EDTA, 0.01, equilibrated with 5% CO2 /95% O2 pH 7.4 at 37 ° C.). Propranolol (0.004 mM) was included in all of the assays to block β-adrenoceptors. The trigonal and dome portions were discarded. Strips 3-5 mm wide and 20 mm long were prepared from the remaining tissue cut in a circular fashion. The mucosal layer was removed. One end was fixed to a stationary glass rod and the other to a Grass FT03 transducer at a basal preload of 1.0 gram. Two parallel platinum electrodes were included in the stationary glass rod to provide field stimulation of 0.05 Hz, 0.5 milli-seconds at 20 volts. This low frequency stimulation produced a stable twitch response of 100-500 centigrams. Tissues were allowed to equilibrate for at least 60 minutes and primed with 80 mM KCl. A control concentration response curve (cumulative) was generated for each tissue using the potassium channel opener P1075 as the control agonist. […] After a 60 minute rinsing period, a concentration response curve (cumulative) was generated for the test agonist in the same fashion as that used for the control agonist P1075. The maximal efficacy of each compounds (expressed as % relative to P1075) is reported. The amount of agent necessary to cause 50% of the agent's maximal response (ED50) was calculated using "ALLFIT" (DeLean et al., Am. J. Physiol., 235, E97 (1980)), hereby incorporated by reference, and agonist potencies were expressed as pD2 (the negative logarithm). Agonist potencies were also expressed as an index relative to P1075. The index was calculated by dividing the ED50 for P1075 by the ED50 for the test agonist in a given tissue. Each tissue was used for only one test agonist, and the indices obtained from each tissue were averaged to provide an average index of potency.

[1] = molecular target: smooth muscle KATP channels (Rattus norvegicus, UniProt Q63563); conditions: Quast et al., Mol. Pharmacol., v. 43 pp. 474-481 (1993); cited from earlier work
smooth muscle KATP channels, sequence (Q63563 1-1545 isoform Q63563-2): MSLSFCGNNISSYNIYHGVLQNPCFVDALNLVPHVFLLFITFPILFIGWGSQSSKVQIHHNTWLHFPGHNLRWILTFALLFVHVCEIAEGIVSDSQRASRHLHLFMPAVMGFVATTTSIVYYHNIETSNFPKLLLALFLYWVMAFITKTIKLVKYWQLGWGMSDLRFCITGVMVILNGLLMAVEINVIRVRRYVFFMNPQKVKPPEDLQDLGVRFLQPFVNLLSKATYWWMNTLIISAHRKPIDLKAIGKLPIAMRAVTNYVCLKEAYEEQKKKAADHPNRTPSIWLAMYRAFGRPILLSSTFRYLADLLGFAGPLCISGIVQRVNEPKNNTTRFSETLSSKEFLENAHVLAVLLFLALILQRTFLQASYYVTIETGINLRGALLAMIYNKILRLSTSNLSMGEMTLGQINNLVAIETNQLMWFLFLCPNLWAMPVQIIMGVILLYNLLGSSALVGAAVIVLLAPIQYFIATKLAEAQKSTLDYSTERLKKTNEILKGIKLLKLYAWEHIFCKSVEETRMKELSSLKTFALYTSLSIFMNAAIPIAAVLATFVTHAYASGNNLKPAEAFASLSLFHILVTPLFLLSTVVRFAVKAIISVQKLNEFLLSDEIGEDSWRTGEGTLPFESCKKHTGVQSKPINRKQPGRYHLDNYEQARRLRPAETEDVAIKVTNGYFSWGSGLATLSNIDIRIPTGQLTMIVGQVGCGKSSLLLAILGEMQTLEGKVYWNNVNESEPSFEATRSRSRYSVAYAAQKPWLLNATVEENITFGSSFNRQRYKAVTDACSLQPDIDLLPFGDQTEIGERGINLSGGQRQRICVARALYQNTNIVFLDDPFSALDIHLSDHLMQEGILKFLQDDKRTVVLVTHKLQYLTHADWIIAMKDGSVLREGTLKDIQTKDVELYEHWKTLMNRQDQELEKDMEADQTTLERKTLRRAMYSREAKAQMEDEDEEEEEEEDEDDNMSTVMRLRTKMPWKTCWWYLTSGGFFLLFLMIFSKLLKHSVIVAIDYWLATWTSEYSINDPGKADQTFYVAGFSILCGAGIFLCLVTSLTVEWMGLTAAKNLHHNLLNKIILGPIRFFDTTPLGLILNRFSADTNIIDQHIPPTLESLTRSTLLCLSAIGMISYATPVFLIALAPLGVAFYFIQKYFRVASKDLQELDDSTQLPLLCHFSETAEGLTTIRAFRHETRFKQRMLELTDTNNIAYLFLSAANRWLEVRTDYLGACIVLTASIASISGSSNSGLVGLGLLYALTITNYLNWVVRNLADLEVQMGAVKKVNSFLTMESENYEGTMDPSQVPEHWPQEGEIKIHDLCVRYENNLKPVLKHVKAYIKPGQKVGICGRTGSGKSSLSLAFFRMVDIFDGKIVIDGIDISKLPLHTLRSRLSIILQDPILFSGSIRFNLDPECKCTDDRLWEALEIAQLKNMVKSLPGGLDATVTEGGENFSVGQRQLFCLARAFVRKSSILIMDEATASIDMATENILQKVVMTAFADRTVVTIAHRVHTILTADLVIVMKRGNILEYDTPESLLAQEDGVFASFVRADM
smooth muscle KATP channels, sequence (Q63664 whole entry partner): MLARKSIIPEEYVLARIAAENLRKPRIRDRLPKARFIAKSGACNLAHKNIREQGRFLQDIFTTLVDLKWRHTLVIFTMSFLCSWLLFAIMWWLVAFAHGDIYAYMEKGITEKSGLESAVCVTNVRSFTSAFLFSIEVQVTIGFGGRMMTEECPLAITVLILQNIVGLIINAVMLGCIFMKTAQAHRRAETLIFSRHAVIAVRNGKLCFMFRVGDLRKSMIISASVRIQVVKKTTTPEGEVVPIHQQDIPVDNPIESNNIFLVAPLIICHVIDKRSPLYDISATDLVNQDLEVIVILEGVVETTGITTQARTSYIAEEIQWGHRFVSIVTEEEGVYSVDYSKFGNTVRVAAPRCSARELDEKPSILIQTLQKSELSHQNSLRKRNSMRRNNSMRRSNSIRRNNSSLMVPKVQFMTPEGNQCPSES

O=C1CCCC2=C1C(c1cccc(Br)c1)n1nccc1N2 (stereo not drawn) [Example 7, 9-(3-bromophenyl)-5,6,7,9-tetrahydropyrazolo[5,1-b]quinazolin-8(4H)-one]
EC50 (potassium channels): 550 nM | Maximal Response (% P1075) (potassium channels): 98 % P1075

CCC(C)(C)NC(=NC#N)Nc1cccnc1 [Example P1075, N"-cyano-N-(tert-pentyl)-N'-(3-pyridinyl)quanidine, reference compound]
elimination of the stimulated twitch (potassium channel; dose dependent over 10^-9 to 10^-5 M): completely eliminated the stimulated twitch | opener of smooth muscle KATP channels [1]: potent opener

Cc1cccc(C2C3=C(CCCC3=O)Nc3ccnn32)c1 (stereo not drawn) [Example 13, 9-(3-methylphenyl)-5,6,7,9-tetrahydropyrazolo[5,1-b]quinazolin-8(4H)-one]
EC50 (potassium channels): 10000 nM | Maximal Response (% P1075) (potassium channels): 50 % P1075

O=C1CCCC2=C1C(c1ccc(F)c(C(F)(F)F)c1)n1nccc1N2 (stereo not drawn) [Example 10, 9-[4-fluoro-3-(trifluoromethyl)phenyl]-5,6,7,9-tetrahydropyrazolo[5,1-b]quinazolin-8(4H)-one]
EC50 (potassium channels): 290 nM | Maximal Response (% P1075) (potassium channels): 100 % P1075

O=C1CCCC2=C1C(c1ccc3ccccc3c1)n1nccc1N2 (stereo not drawn) [Example 4, 9-(2-naphthyl)-5,6,7,9-tetrahydropyrazolo[5,1-b]quinazolin-8(4H)-one]
EC50 (potassium channels): 429 nM | Maximal Response (% P1075) (potassium channels): 96 % P1075

O=C1CCCC2=C1C(c1cccc(OC(F)(F)F)c1)n1nccc1N2 (stereo not drawn) [Example 11, 9-[3-(trifluoromethoxy)phenyl]-5,6,7,9-tetrahydropyrazolo[5,1-b]quinazolin-8(4H)-one]
EC50 (potassium channels): 1710 nM | Maximal Response (% P1075) (potassium channels): 90 % P1075

O=C1CCCC2=C1C(c1ccc(F)c(Br)c1)n1nccc1N2 (single isomer, unassigned; (+)) [Example 16, (+) 9-(3-bromo-4-fluorophenyl)-5,6,7,9-tetrahydropyrazolo [5,1-b]quinazolin-8(4H)-one]
EC50 (potassium channels): 20 nM | Maximal Response (% P1075) (potassium channels): 105 % P1075 | Index (potassium channel): 0.28 | Efficacy (% P1075) (potassium channel): 95 % P1075 | pD2 (potassium channel): 6.34

N#Cc1cccc(C2C3=C(CCCC3=O)Nc3ccnn32)c1 (stereo not drawn) [Example 12, 9-(3-cyanophenyl)-5,6,7,9-tetrahydropyrazolo[5,1-b]quinazolin-8(4H)-one]
EC50 (potassium channels): 2860 nM | Maximal Response (% P1075) (potassium channels): 85 % P1075

O=C1CCCC2=C1C(c1ccc(Cl)c(Cl)c1)n1nccc1N2 (stereo not drawn) [Example 6, 9-(3,4-dichlorophenyl)-5,6,7,9-tetrahydropyrazolo [5,1-b]quinazolin-8(4H)-one]
EC50 (potassium channels): 130 nM | Maximal Response (% P1075) (potassium channels): 95 % P1075

O=C1CCCC2=C1C(c1ccc(F)c(Br)c1)n1nccc1N2 (single isomer, unassigned; (-)) [Example 15, (-) 9-(3-bromo-4-fluorophenyl)-5,6,7,9-tetrahydropyrazolo[5,1-b]quinazolin-8(4H)-one]
EC50 (potassium channels): 51 nM | Maximal Response (% P1075) (potassium channels): 103 % P1075 | Index (potassium channel): 0.21 | Efficacy (% P1075) (potassium channel): 100 % P1075 | pD2 (potassium channel): 6.67

O=C1CCCC2=C1C(c1ccc(Cl)c(C(F)(F)F)c1)n1nccc1N2 (stereo not drawn) [Example 9, 9-[4-chloro-3-(trifluoromethyl)phenyl]-5,6,7,9-tetrahydropyrazolo[5,1-b]quinazolin-8(4H)-one]
EC50 (potassium channels): 187 nM | Maximal Response (% P1075) (potassium channels): 94 % P1075

O=S1(=O)CCCC2=C1C(c1ccc(F)c(Br)c1)n1nccc1N2 (stereo not drawn) [Example 17]
EC50 (potassium channels): 910 nM | Maximal Response (% P1075) (potassium channels): 89 % P1075

O=C1CCCC2=C1C(c1ccc(Br)c(Br)c1)n1nccc1N2 (stereo not drawn) [Example 5, 9-(3 4-dibromophenyl)-5,6,7,9-tetrahydropyrazolo[5,1-b]quinazolin-8(4H)-one]
EC50 (potassium channels): 122 nM | Maximal Response (% P1075) (potassium channels): 98 % P1075

O=C1OCC2=C1C(c1ccc(F)c(Br)c1)n1nccc1N2 (stereo not drawn) [Example 14, 8-(3-bromo-4-fluorophenyl)-5,8-dihydro-4H,7H-furo[3,4-d]pyrazolo[1,5-a]pyrimidin-7-one]
EC50 (potassium channels): 258 nM | Maximal Response (% P1075) (potassium channels): 89 % P1075

O=C1CCCC2=C1C(c1cccc(Cl)c1)n1nccc1N2 (stereo not drawn) [Example 8, 9-(3-chlorophenyl)-5,6,7,9-tetrahydropyrazolo[5,1-b]quinazolin-8(4H)-one]
EC50 (potassium channels): 1120 nM | Maximal Response (% P1075) (potassium channels): 92 % P1075

O=C1CSCC2=C1C(c1ccc(F)c(Br)c1)n1nccc1N2 (stereo not drawn) [Example 2, 9-(3-bromo-4-fluorophenyl)-5,9-dihydro-4H-pyrazolo[1,5-a]thiopyrano[3,4-d]pyrimidin-8(7H)-one]
EC50 (potassium channels): 40 nM | Maximal Response (% P1075) (potassium channels): 100 % P1075

O=C1CCCC2=C1C(c1ccc(F)c(Br)c1)n1nccc1N2 (stereo not drawn) [Example 1]
EC50 (potassium channels): 31 nM | Maximal Response (% P1075) (potassium channels): 87 % P1075 | Index (potassium channel): 0.26 | Efficacy (% P1075) (potassium channel): 96 % P1075 | pD2 (potassium channel): 6.47

O=C1CCCC2=C1C(c1cccc3ccccc13)n1nccc1N2 (stereo not drawn) [Example 3, 9-(1-naphthyl)-5,6,7,9-tetrahydropyrazolo[5,1-b]quinazolin-8(4H)-one]
EC50 (potassium channels): 24000 nM | Maximal Response (% P1075) (potassium channels): 34 % P1075
